Assay results reported in EP0972448A2, “Parasitic mite control on beneficial insects” (American Cyanamid Company, priority 1998, dated 2000).

Columns and labels:
Format in all cases: in vivo
[1] = system: Varroa jacobsoni (Varroa mites); assay: Efficacy against Varroa jacobsoni parasites on topically treated infested honeybees; details: 1 µl acetone droplet on dorsal abdomen of bee, 5 days at 31°C
Method: (§1) In this evaluation, honeybees (Apis mellifera) taken from hives which are 70-90% infested with Varroa jacobsoni (Varroa mites) are chilled to immobilize the bees. A 1 µl droplet of an acetone solution of tebufenpyrad is applied to the dorsal abdomen of each bee. Control bees receive 1 µl droplet of acetone. A total of 50-52 bees are treated for each dose rate tested. Treatment dose rates are based upon the LD50 (dose rate required to obtain 50% mortality of healthy uninfected bees) of tebufenypyrad and are set at 10% of the LD50 and subsequent 10-fold dilution thereof. The treated bees are placed in an incubator at 31°C in the dark and fed 50% sugar water ad libitum for 5 days. After incubation, the bees are examined for mortality and mite infestation. The results are shown in Table I below, as % mortality of the total of the bees and the total of the mites.

[2] = system: Varroa jacobsoni; assay: Field evaluation against Varroa jacobsoni in infested beehives, stickyboard mite count; details: two strips with 18% tebufenpyrad in 60:40 beeswax:lard, count taken 24 hours after treatment
Description: In this evaluation, two Varroa jacobsoni infested beehives are monitored for the extent of infestation using stickyboards inserted at the bottom of the hive. Data are presented as the number of mites trapped on the stickyboard per day. Two strips (2.5 x 17cm) containing 18% tebufenpyrad dissolved in a 60:40 beeswax:lard (Crisco®) mixture are inserted into each hive brood chamber as per standard practice. One day after treatment, the stickyboards are removed and the dead mites counted.

[3] = system: Acarapis woodi (trachea mites); assay: Efficacy against Acarapis woodi parasites, contact with treated glass slides; details: slides dipped in 500 ppm acetone solution
Method: In this evaluation, honeybees (Apis mellifera) which are infested with Acarapis woodi (trachea mites) are dissected to remove the infested tracheae. Glass microscope slides are dipped into acetone solutions of tebufenpyrad (500 ppm)and the acetone is allowed to evaporate. Infested tracheae are placed directly on the treated slides. The mites are removed from the tracheae by dissection and forced to walk across the treated area. The elapsed time is recorded for 100% mortality, i.e. no movement is observed upon agitation.

[4] = system: honeybees (Apis mellifera); assay: Mortality of topically treated honeybees in the Varroa jacobsoni evaluation; details: 1 µl acetone droplet on dorsal abdomen, 5 days at 31°C
Method: as §1

With `CCc1nn(C)c(C(=O)NCc2ccc(C(C)(C)C)cc2)c1Cl` [Tebufenpyrad, N-(4-t-butylbenzyl)-4-chloro-3-ethyl-1-methylpyrazole-5-carboxamide] the “% Mortality Parasites” value ([1]; dose 0.006 µg/bee) was 58%, the “% Mortality Parasites” value ([1]; dose 0.06 µg/bee) was 44% and the “% Mortality Parasites” value ([1]; dose 0.6 µg/bee) was 92%. For the same molecule, the Treatment mites/day ([2]; Hive 1, pretreatment 101 mites/day) was 1777 mites/day, the Treatment mites/day ([2]; Hive 2, pretreatment 66 mites/day) was 1080 mites/day and the “Time required in minutes to achieve 100% mortality” value ([3]; Rep. 1, 7 mites) was 8.5 min. For the same molecule, the “Time required in minutes to achieve 100% mortality” value ([3]; Rep. 2, 10 mites) was 8 min, the “Time required in minutes to achieve 100% mortality” value ([3]; Rep. 3, 7 mites) was 8 min and the “% Mortality Bees” value ([4]; dose 0.006 µg/bee) was 24%. The “% Mortality Bees” value ([4]; dose 0.06 µg/bee) was 25% and the “% Mortality Bees” value ([4]; dose 0.6 µg/bee) was 28%.
